Patent publication EP2650284A1, “Heterocyclic derivatives as metabotropic glutamate receptor modulators” (Merz Pharma GmbH & Co. KGaA, priority 2012, dated 2013)

How the values were obtained:
[1] = target: T1, human metabotropic glutamate receptor mGluR5 (Homo sapiens, UniProt P41594); assay: Cytosolic calcium studies with stably transfected cells (h5CHO), functional assay of mGluR5 receptors; format: cell-based; conditions: for h left shift / EC50: Table A1; for h left shift: left shift of agonist EC50, dose response curves in the presence of 10 µM modulator or vehicle; for h left shift / IC50: h5CHO cells; for EC50: positive modulators, h5CHO cells preincubated with modulator, stimulated by an EC20 concentration of L-glutamate, read-out: hEC50; for IC50: Table A2, negative modulation, compounds added 5 minutes before L-quisqualic acid (~80% of the maximal signal), read-out: hIC50
T1 construct: expressed in transfected cells; host or cells: CHO-K1 (h5CHO), IPTG-inducible
Protocol: Chinese hamster ovary cells (CHO-K1 cells), stably transfected for inducible expression of a human metabotropic glutamate receptor mGluR5 to form a cell line called h5CHO, are seeded into black clear bottom 96 well plates at a density of 35.000 cells per well. The standard growth medium used (Dulbecco's modified Eagle Medium, DMEM plus L-proline) contains the appropriate inducer isopropyl-β-D-thiogalactopyranosid (IPTG) to achieve optimal receptor expression. One day after seeding the growth medium is exchanged for reconstituted Ca-Kit (Molecular Devices, USA) and incubated for one hour. Ca-Kit is reconstituted in an assay buffer containing 20 mM HEPES pH 7.4, glutamic-pyruvate transaminase, pyridoxal phosphate and sodium pyruvate in Hank's balanced salt solution (HBBS). Agonistic compounds to the receptor elicit increases in cytosolic calcium which can be measured as increases in fluorescence signals by use of a fluorescence imaging plate reader (Molecular Devices). To analyze their potency to negatively modulate the Ca-response test compounds, dissolved in a final DMSO concentration of 0.5%, are added on-line 5 minutes before the agonist to the receptor (L-quisqualic acid at a concentration giving ~80% of the maximal signal). EC50 values for positive allosteric modulators were determined by stimulating the cells which have been preincubated the modulators by an EC20 concentration of L-glutamate.
(§1) The fluorescence signal increase after addition of agonist reflects the increase of cytosolic calcium. Inconsistencies in the amount of cells per well are normalised by using the spatial uniformity correction of the FLIPR operating software Screenworks. The mean of replicated temporal data (n=3-5) is calculated and used for graphical representation. For the evaluation of the pharmacology, the calcium changes in response to different concentrations of agonist or antagonist are determined using a maximum minus minimum (MaxMin) calculation.
(§2) All responses (RFU-values) are determined as percentage of control (= maximum response). EC50 and IC50 are calculated according the logistic equation using XLFit (IDBS, UK) or Prism 4.0 (GraphPad Software, USA). The compounds of the present invention have a potency (EC50 or IC50) within a range of about 0.5 nM to about 100 µM. The left shifts for positive or slient allosteric modulators (PAMs or SAMs, respectively) are determined by comparison of EC50 values from agonist dose response curves run in the presence of 10 µM modulator or vehicle (Vanejevs et al., J. Med. Chem., 2008, 51, 634-647).

mGluR5 receptors = target: T2, mGluR5 receptors (Rattus norvegicus, UniProt P31424); assay: Cytosolic calcium studies with astrocytes (FLIPR), functional assay of mGluR5 receptors; format: cell-based; conditions: for r left shift: Table A1, left shift of quisqualate EC50 in the presence and absence of 10 µM modulator; for EC50: Table A1, positive modulators, fixed concentration of quisqualate (normally 10-30 nM), read-out: rEC50
T2 construct: Primary astrocyte cultures are prepared from cortices of newborn rats; endogenous in cells; host or cells: primary cortical astrocytes from Sprague-Dawley rat pups (2-4 d old)
Protocol: Primary astrocyte cultures are prepared from cortices of newborn rats as described by Booher and Sensenbrenner (1972, Neurobiology 2(3):97-105). Briefly, Sprague-Dawley rat pups (2 - 4 d old) are decapitated and neocortices are dissected, disintegrated with a nylon filter (pore size 80 µm) and carefully triturated. The cell suspension is plated on poly-D-lysine pre-coated flasks (Costar, Netherlands) and cultivated in Dulbecco's Modified Eagle's Medium (DMEM, Invitrogen, Germany) supplemented with 10% foetal calf serum (FCS, Sigma, Germany), 4 mM glutamine and 50 µg/ml gentamycin (both Biochrom, Germany) at 37°C in a humidified atmosphere of 5% CO2/ 95% air for 7 days with exchanging the medium at day 2 and 6.
After 7 days in vitro (DIV), cells are shaken overnight at 250 rpm to remove oligodendrocytes and microglia. The next day, astrocytes are rinsed twice with CMF-PBS (calcium- and magnesium-free phosphate buffered saline, Biochrom, Germany), trypsinized and subplated on poly-D-lysine pre-coated 96-well plates (Greiner, Germany) at a density of 40,000 cells/well. 24 h after establishing the secondary culture the astrocytes are rinsed with PBS^++ (phosphate buffered saline, Biochrom, Germany) and fed with astrocyte-defined medium (ADM) consisting of DMEM containing 1x G5-supplement (Invitrogen, Germany), 0.5 µg/ml heparan sulfate, and 1.5 µg/ml fibronectin (both Sigma, Germany) (Miller et al., (1993) Brain Res. 618(1):175-8). 3 days later the medium is exchanged and the cells incubated for another 2-3 days, so that at the time of experiments astrocytes are 14-15 DIV.
The increase of cytosolic calcium after stimulation with the mGluR5 agonist L-quisqualate is measured using a fluorometric imaging plate reader (FLIPR) and the Ca-Kit (both Molecular Devices). Prior to addition of agonist or antagonist the medium is aspirated and cells are loaded for 2 h at RT with 150 µl of loading buffer consisting of Ca-sensitive dye reconstituted in sodium chloride (123 mM), potassium chloride (5.4 mM), magnesium chloride (0.8 mM), calcium chloride (1.8 mM), D-glucose (15 mM), and HEPES (20 mM), pH 7.3. Subsequently, plates are transferred to FLIPR to detect calcium increase with the addition of L-quisqualate (100 nM) measured as relative fluorescence units (RFU). If antagonists are tested, these compounds are pre-incubated for 10 minutes at RT before addition of the respective agonist.
For positive modulators, concentration-response curves for quisqualate are performed in the presence and absence of 10 µM modulator to determine the extent of potentiation / agonist potency increase. Thereafter, concentration-response curves for the positive modulator are performed in the presence of a fixed concentration of quisqualate showing the biggest window for potentiation (normally 10-30 nM).
as §1, §2

T2 sequence (P31424 21-1203): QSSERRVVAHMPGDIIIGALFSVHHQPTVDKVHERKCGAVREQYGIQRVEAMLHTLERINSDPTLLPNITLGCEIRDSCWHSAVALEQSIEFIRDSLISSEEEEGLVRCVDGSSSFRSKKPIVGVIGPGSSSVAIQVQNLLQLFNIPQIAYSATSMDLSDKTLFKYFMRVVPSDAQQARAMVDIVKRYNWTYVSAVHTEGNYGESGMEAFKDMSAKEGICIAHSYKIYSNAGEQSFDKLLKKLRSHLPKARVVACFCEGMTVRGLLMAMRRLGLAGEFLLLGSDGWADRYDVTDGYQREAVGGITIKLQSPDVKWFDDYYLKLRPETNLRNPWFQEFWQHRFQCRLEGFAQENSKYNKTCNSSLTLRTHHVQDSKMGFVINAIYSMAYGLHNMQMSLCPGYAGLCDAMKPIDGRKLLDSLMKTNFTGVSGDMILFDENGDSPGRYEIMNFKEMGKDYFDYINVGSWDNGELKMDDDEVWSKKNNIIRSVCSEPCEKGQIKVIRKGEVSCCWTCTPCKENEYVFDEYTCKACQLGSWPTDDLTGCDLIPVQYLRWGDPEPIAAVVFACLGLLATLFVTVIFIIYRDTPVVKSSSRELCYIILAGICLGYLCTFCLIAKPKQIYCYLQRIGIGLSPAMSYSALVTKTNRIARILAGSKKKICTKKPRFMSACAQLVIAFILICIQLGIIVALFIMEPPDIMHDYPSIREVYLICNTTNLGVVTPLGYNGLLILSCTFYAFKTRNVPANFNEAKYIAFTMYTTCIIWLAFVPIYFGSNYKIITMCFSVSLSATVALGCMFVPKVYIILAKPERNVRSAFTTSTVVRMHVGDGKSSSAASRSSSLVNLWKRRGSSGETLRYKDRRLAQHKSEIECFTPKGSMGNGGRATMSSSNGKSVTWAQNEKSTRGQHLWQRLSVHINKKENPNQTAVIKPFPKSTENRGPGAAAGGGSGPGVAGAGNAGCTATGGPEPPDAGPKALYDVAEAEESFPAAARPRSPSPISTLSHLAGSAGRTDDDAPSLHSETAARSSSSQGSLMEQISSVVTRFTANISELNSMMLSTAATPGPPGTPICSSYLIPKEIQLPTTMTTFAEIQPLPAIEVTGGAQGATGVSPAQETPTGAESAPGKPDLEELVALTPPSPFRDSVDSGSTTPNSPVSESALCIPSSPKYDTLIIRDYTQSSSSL
T1 sequence (P41594 21-1212): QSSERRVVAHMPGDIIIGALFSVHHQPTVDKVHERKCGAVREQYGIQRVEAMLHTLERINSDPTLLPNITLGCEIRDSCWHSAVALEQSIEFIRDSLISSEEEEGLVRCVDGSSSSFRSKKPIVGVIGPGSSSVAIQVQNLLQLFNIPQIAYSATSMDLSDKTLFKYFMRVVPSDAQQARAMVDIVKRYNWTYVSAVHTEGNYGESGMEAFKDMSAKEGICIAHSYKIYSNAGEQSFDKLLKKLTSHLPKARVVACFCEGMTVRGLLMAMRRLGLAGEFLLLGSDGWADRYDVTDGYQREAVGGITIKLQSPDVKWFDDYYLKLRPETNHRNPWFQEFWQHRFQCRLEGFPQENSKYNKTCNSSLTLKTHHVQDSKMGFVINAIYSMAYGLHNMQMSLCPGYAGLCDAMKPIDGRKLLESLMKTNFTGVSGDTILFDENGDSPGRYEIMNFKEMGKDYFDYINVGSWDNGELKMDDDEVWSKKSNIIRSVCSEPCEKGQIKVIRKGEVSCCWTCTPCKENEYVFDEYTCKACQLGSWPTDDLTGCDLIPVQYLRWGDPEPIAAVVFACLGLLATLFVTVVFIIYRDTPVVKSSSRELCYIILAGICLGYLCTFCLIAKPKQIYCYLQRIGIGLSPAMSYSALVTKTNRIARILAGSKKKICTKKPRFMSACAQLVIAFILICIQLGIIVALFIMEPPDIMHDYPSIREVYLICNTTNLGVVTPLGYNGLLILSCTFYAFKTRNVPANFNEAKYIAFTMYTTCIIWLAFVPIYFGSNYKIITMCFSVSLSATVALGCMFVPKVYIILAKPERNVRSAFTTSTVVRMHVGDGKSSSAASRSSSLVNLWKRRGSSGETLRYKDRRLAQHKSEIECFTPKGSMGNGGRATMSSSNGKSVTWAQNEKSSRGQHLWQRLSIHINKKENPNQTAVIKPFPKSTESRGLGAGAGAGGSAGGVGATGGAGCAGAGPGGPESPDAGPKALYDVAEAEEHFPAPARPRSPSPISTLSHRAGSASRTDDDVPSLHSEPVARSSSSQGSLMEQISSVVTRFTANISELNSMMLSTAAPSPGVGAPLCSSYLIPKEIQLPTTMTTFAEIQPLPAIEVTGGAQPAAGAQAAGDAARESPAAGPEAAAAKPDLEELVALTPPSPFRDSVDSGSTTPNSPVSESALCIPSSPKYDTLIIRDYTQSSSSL

Row | Compound | h left shift [1] | IC50 [1] [nM] | other results
1 | COC1CCCc2ncc(C#Cc3cccc(N)n3)cc21 (racemic) [Example 3, (rac)-6-((5-Methoxy-5,6,7,8-tetrahydroquinolin-3-yl)ethynyl)pyridin-2-amine] | – | 4230 | –
2 | COC1CC(C)(C)Cc2ncc(C#Cc3cccc(N)n3)cc21 (racemic) [Example 5, (rac)-6-((5-Methoxy-7,7-dimethyl-5,6,7,8-tetrahydroquinolin-3-yl)ethynyl)pyridin-2-amine] | – | 66.7 | IC50 (mGluR5 receptors; Table A2, pre-incubated 10 minutes before L-quisqualate (100 nM), read-out: rIC50): 45.7 nM
3 | COC1CC(C)(C)Cc2ncc(C#Cc3cn4ccccc4n3)cc21 (racemic) [Example 6, (rac)-3-(Imidazo[1,2-a]pyridin-2-ylethynyl)-5-methoxy-7,7-dimethyl-5,6,7,8-tetrahydroquinoline] | – | 695 | –
4 | COC1CC(C)(C)Oc2ncc(C#Cc3cccc(N)n3)cc21 (racemic) [Example 7, (rac)-6-((4-Methoxy-2,2-dimethyl-3,4-dihydro-2H-pyrano[2,3-b]pyridin-6-yl)ethynyl)pyridin-2-amine] | – | 203 | –
5 | COC1CC(C)(C)Oc2ncc(C#Cc3cn4ccccc4n3)cc21 (racemic) [Example 8, (rac)-6-(Imidazo[1,2-a]pyridin-2-ylethynyl)-4-methoxy-2,2-dimethyl-3,4-dihydro-2H-pyrano[2,3-b]pyridine] | – | 225 | –
6 | O=C1NCC2(CCCc3ncc(C#Cc4ccccc4)cc32)O1 (racemic) [Example 10, (rac)-3'-(Phenylethynyl)-7',8'-dihydro-6'H-spiro[oxazolidine-5,5'-quinolin]-2-one] | 1.8-fold | – | –
7 | O=C1OC2(CCCc3ncc(C#Cc4ccccc4)cc32)CN1c1ccccc1 (racemic) [Example 12, (rac)-3-Phenyl-3'-(phenylethynyl)-7',8'-dihydro-6'H-spiro[oxazolidine-5,5'-quinolin]-2-one] | 1.9-fold | – | EC50 [1]: 966 nM; EC50 (mGluR5 receptors): 856 nM
8 | CN1CCO[C@@H]2c3cc(C#Cc4ccccc4)cnc3CC[C@@H]21 (racemic) [Example 13, (rac)-cis-4-Methyl-9-(phenylethynyl)-3,4,4a,5,6,10b-hexahydro-2H-[1,4]oxazino[2,3-f]quinoline] | 1.7-fold | – | EC50 [1]: 425 nM; r left shift (mGluR5 receptors): 1.7-fold
9 | CCN1CCO[C@@H]2c3cc(C#Cc4ccccc4)cnc3CC[C@@H]21 (racemic) [Example 14, (rac)-cis-4-Ethyl-9-(phenylethynyl)-3,4,4a,5,6,10b-hexahydro-2H-[1,4]oxazino[2,3-f]quinoline] | 2.2-fold | – | EC50 [1]: 659 nM; r left shift (mGluR5 receptors): 3.6-fold; EC50 (mGluR5 receptors): 580 nM
10 | CC(C)(C)C(=O)N1CCc2ncc(C#Cc3cccc(N)n3)cc2C1 [Example 35, 1-(3-((6-Aminopyridin-2-yl)ethynyl)-7,8-dihydro-1,6-naphthyridin-6(5H)-yl)-2,2-dimethylpropan-1-one] | – | 617 | –
11 | CC1(C)c2cc(C#Cc3ccccc3)cnc2CCS1(=O)=O [Example 75, 5,5-Dimethyl-3-(phenylethynyl)-7,8-dihydro-5H-thiopyrano[4,3-b]pyridine 6,6-dioxide] | 1.6-fold | – | EC50 [1]: 971 nM

Continued, in another order:

Row | h left shift [1] | IC50 [1] [nM] | Compound | other results
12 | 2.6-fold | – | COC1CCCc2ncc(C#Cc3ccccc3)cc21 (racemic) [Example 1, (rac)-5-Methoxy-3-(phenylethynyl)-5,6,7,8-tetrahydroquinoline] | EC50 [1]: 32.1 nM; r left shift (mGluR5 receptors): 4.9-fold; EC50 (mGluR5 receptors): 22.7 nM
13 | – | 341 | COC1CC(C)(C)Cc2ncc(C#Cc3ccccc3)cc21 (racemic) [Example 4, (rac)-5-Methoxy-7,7-dimethyl-3-(phenylethynyl)-5,6,7,8-tetrahydroquinoline] | –
14 | 1.8-fold | – | CN1CC2(CCCc3ncc(C#Cc4ccccc4)cc32)OC1=O (racemic) [Example 11, (rac)-3-Methyl-3'-(phenylethynyl)-7',8'-dihydro-6'H-spiro[oxazolidine-5,5'-quinolin]-2-one] | EC50 [1]: 53.7 nM; r left shift (mGluR5 receptors): 2.9-fold; EC50 (mGluR5 receptors): 58.6 nM
15 | – | 190 | CN1CCC2Cc3ncc(C#Cc4ccccc4)cc3CN2C1=O (racemic) [Example 57, (rac)-8-Methyl-3-(phenylethynyl)-9,10,10a,11-tetrahydro-5H-pyrimido[1,6-g][1,6]naphthyridin-7(8H)-one] | –
16 | – | 132 | COC(=O)N1Cc2cc(C#Cc3cccc(F)c3)cnc2[C@H]2CCC[C@H]21 (racemic) [Example 61, (rac)-cis-Methyl 3-((3-fluorophenyl)ethynyl)-7,8,9,9a-tetrahydro-5H-cyclopenta[h][1,6]naphthyridine-6(6aH)-carboxylate] | –
17 | – | 1400 | COC(=O)N1Cc2cc(C#Cc3ccccc3)cnc2[C@H]2CCCC[C@H]21 (racemic) [Example 62, (rac)-cis-Methyl 3-(phenylethynyl)-6a,7,8,9,10,10a-hexahydrobenzo[h][1,6]naphthyridine-6(5H)-carboxylate] | –
18 | – | 1320 | COC(=O)N1Cc2cc(C#Cc3cccc(F)c3)cnc2[C@H]2CCCC[C@H]21 (racemic) [Example 63, (rac)-cis-Methyl 3-((3-fluorophenyl)ethynyl)-6a,7,8,9,10,10a-hexahydrobenzo[h][1,6]naphthyridine-6(5H)-carboxylate] | –
19 | – | 247 | CN(C)C(=O)N1CCc2ncc(C#Cc3ccccc3)cc2C1 [Example 44, N,N-Dimethyl-3-(phenylethynyl)-7,8-dihydro-1,6-naphthyridine-6(5H)-carboxamide] | –
20 | – | 261 | CN(C)C(=O)N1CCc2ncc(C#Cc3cccc(N)n3)cc2C1 [Example 47, 3-((6-Aminopyridin-2-yl)ethynyl)-N,N-dimethyl-7,8-dihydro-1,6-naphthyridine-6(5H)-carboxamide] | –
21 | – | 194 | CCN(CC)C(=O)N1CCc2ncc(C#Cc3cccc(C#N)c3)cc2C1 [Example 48, 3-((3-Cyanophenyl)ethynyl)-N,N-diethyl-7,8-dihydro-1,6-naphthyridine-6(5H)-carboxamide] | –
22 | – | 75.5 | Cc1cccc(C#Cc2cnc3c(c2)CS(=O)(=O)CC3)c1 [Example 68, 3-(m-Tolylethynyl)-7,8-dihydro-5H-thiopyrano[4,3-b]pyridine 6,6-dioxide] | –
